Measured values: PubChem BioAssay (NCI)
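Following 48 hours of exposure in 96-well plates, responses at five concentrations were used to interpolate endpoints linearly. Abbreviation: GI50, concentration required for 50% inhibition of growth. The concentration for full growth arrest is given as TGI.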

How the values were obtained:
Assay in all cases: NCI-60 cell line screen, 48 h
[1] = system: EKVX NSCLC
[2] = system: BT-549 breast
[3] = system: SW-620 colon
[4] = system: NCI-H522 lung
[5] = system: UACC-62 melanoma
[6] = system: SNB-75 CNS
[7] = system: SK-MEL-28 melanoma
[8] = system: LOX IMVI melanoma
[9] = system: SF-539 CNS
[10] = system: UACC-257 melanoma
[11] = system: A549 NSCLC
[12] = system: HT29 colon
[13] = system: ACHN renal
[14] = system: HCT-15 colon
[15] = system: M14 melanoma
[16] = system: HCT-116 colon
[17] = system: RXF 393 renal
[18] = system: SN12C renal
[19] = system: MCF7 breast
[20] = system: SK-OV-3 ovarian
[21] = system: 786-0 renal
[22] = system: MDA-MB-435
[23] = system: OVCAR-8 ovarian
[24] = system: A498 renal
[25] = system: CCRF-CEM leukemia
[26] = system: SF-295 CNS
[27] = system: DU-145 prostate
[28] = system: RPMI-8226 leukemia
[29] = system: K-562 leukemia
[30] = system: NCI/ADR-RES ovarian
[31] = system: MALME-3M melanoma
[32] = system: SK-MEL-2 melanoma
[33] = system: HOP-62 NSCLC
[34] = system: CAKI-1 renal
[35] = system: SR leukemia
[36] = system: U251 CNS
[37] = system: OVCAR-5 ovarian
[38] = system: NCI-H23 lung
[39] = system: HOP-92 NSCLC
[40] = system: IGROV1 ovarian
[41] = system: NCI-H460 lung
[42] = system: KM12 colon
[43] = system: NCI-H226 lung
[44] = system: OVCAR-3 ovarian
[45] = system: HL-60(TB) leukemia
[46] = system: OVCAR-4 ovarian
[47] = system: UO-31 renal
[48] = system: SF-268 CNS
[49] = system: HCC-2998 colon
[50] = system: COLO 205 colon
[51] = system: T-47D breast
[52] = system: PC-3 prostate
[53] = system: MDA-MB-231 breast
[54] = system: MOLT-4 leukemia
[55] = system: SNB-19 CNS
[56] = system: HS 578T breast
[57] = system: SK-MEL-5 melanoma
[58] = system: TK-10 renal

Cc1cc(NC(=O)NCCCOc2ccc(N3C(N)=NC(N)=NC3(C)C)cc2Cl)ccc1S(=O)(=O)F
GI50 [1]: 1.32 µM | TGI [1]: > 100 µM | GI50 [2]: 4.85 µM | TGI [2]: 21.7 µM | GI50 [3]: 0.373 µM | TGI [3]: > 100 µM | GI50 [4]: 1.11 µM | TGI [4]: 25.2 µM | GI50 [5]: 0.608 µM | TGI [5]: 24.9 µM | GI50 [6]: 1.2 µM | TGI [6]: 24.4 µM | GI50 [7]: 1.93 µM | TGI [7]: 28.5 µM | GI50 [8]: 0.479 µM | TGI [8]: > 100 µM | GI50 [9]: 2.85 µM | TGI [9]: 31.7 µM | GI50 [10]: 4.09 µM | TGI [10]: 30.9 µM | GI50 [11]: 0.412 µM | TGI [11]: > 100 µM | GI50 [12]: 0.333 µM | TGI [12]: 53.9 µM | GI50 [13]: 11.3 µM | TGI [13]: > 100 µM | GI50 [14]: 39.2 µM | TGI [14]: > 100 µM | GI50 [15]: 2.42 µM | TGI [15]: > 100 µM | GI50 [16]: 0.37 µM | TGI [16]: > 100 µM | GI50 [17]: 13.5 µM | TGI [17]: > 100 µM | GI50 [18]: 0.558 µM | TGI [18]: > 100 µM | GI50 [19]: 0.614 µM | TGI [19]: 22.5 µM | GI50 [20]: 9.72 µM | TGI [20]: > 82.3 µM | GI50 [21]: 2.46 µM | TGI [21]: > 100 µM | GI50 [22]: 0.577 µM | TGI [22]: 33.2 µM | GI50 [23]: 2.52 µM | TGI [23]: > 100 µM | GI50 [24]: 7.94 µM | TGI [24]: 99.9 µM | GI50 [25]: 0.561 µM | TGI [25]: > 63.5 µM | GI50 [26]: 3.26 µM | TGI [26]: > 100 µM | GI50 [27]: 0.786 µM | TGI [27]: > 62.4 µM | GI50 [28]: 5.78 µM | TGI [28]: > 100 µM | GI50 [29]: 0.318 µM | TGI [29]: > 100 µM | GI50 [30]: > 100 µM | TGI [30]: > 100 µM | GI50 [31]: 1.84 µM | TGI [31]: 25.4 µM | GI50 [32]: 2.43 µM | TGI [32]: 65.9 µM | GI50 [33]: 2.24 µM | TGI [33]: 19.6 µM | GI50 [34]: > 63.7 µM | TGI [34]: > 100 µM | GI50 [35]: 0.369 µM | TGI [35]: > 46.2 µM | GI50 [36]: 0.492 µM | TGI [36]: 19.7 µM | GI50 [37]: 0.883 µM | TGI [37]: > 100 µM | GI50 [38]: 0.951 µM | TGI [38]: > 66.8 µM | GI50 [39]: 2.85 µM | TGI [39]: 45.6 µM | GI50 [40]: 0.332 µM | TGI [40]: > 68.8 µM | GI50 [41]: 0.259 µM | TGI [41]: 14.7 µM | GI50 [42]: 0.631 µM | TGI [42]: 17 µM | GI50 [43]: 12.6 µM | TGI [43]: > 100 µM | GI50 [44]: 2.79 µM | TGI [44]: > 53.9 µM | GI50 [45]: 0.647 µM | TGI [45]: 28.9 µM | GI50 [46]: 2.34 µM | TGI [46]: > 100 µM | GI50 [47]: > 82.4 µM | TGI [47]: > 100 µM | GI50 [48]: 0.569 µM | TGI [48]: > 58.9 µM | GI50 [49]: 2.06 µM | TGI [49]: > 69.2 µM | GI50 [50]: 1.17 µM | TGI [50]: 17.5 µM | GI50 [51]: 4.82 µM | TGI [51]: 61.9 µM | GI50 [52]: 0.376 µM | TGI [52]: 44 µM | GI50 [53]: 7.16 µM | TGI [53]: > 100 µM | GI50 [54]: 1.14 µM | TGI [54]: > 96.1 µM | GI50 [55]: 0.92 µM | TGI [55]: > 54.7 µM | GI50 [56]: 2.77 µM | TGI [56]: 35 µM | GI50 [57]: 0.492 µM | TGI [57]: 11.1 µM | GI50 [58]: 3.11 µM | TGI [58]: > 100 µM
